# Test results from ChEMBL document CHEMBL3885881, “DrugMatrix”.
# Species: Rattus norvegicus
# Assay: DrugMatrix - Regimen: Daily Repeat
# Type: toxicity, organism-based, Sprague-Dawley
# Parameters: regimen Daily Repeat, gender Male, age 6-8 weeks
# Settings: in vivo, sc, route subcutaneous, […]; for ABSOLUTE BASOPHIL / ABSOLUTE EOSINOPHIL / ABSOLUTE LYMPHOCYTE / ABSOLUTE MONOCYTE / ABSOLUTE SEGMENTED NEUTROPHIL / BASOPHIL / EOSINOPHIL / ERYTHROCYTE COUNT / HEMATOCRIT / HEMOGLOBIN / LEUKOCYTE COUNT / LYMPHOCYTE / MEAN CORPUSCULAR HEMOGLOBIN / MEAN CORPUSCULAR HEMOGLOBIN CONCENTRATION / MEAN CORPUSCULAR VOLUME / MONOCYTE / NEUTROPHIL / NUCLEATED RED BLOOD CELLS / PLATELET COUNT: tissue Blood; for ALANINE AMINOTRANSFERASE / ALBUMIN / ALKALINE PHOSPHATASE / ASPARTATE AMINOTRANSFERASE / BLOOD UREA NITROGEN / CARBON DIOXIDE / CHLORIDE / CHOLESTEROL / CREATINE PHOSPHOKINASE / CREATININE / GLUCOSE / LACTATE DEHYDROGENASE / LIPASE / PHOSPHORUS / POTASSIUM / SODIUM / TOTAL BILIRUBIN / TOTAL PROTEIN / URIC ACID: tissue Plasma
# [1] = 3 mg/kg, 72 h, dose level Low, time 3 day
# [2] = 3 mg/kg, 120 h, dose level Low, time 5 day
# [3] = 1500 mg/kg, 72 h, dose level High, time 3 day
# [4] = 1500 mg/kg, 120 h, dose level High, time 5 day
smiles,measurement,setting,value
Clc1ccc(CO/N=C(\Cn2ccnc2)c2ccc(Cl)cc2Cl)c(Cl)c1 [OXICONAZOLE],ABSOLUTE BASOPHIL,[1],0 CELLS/uL
same,ABSOLUTE EOSINOPHIL,[1],0 CELLS/uL
same,ABSOLUTE LYMPHOCYTE,[1],11885.67 CELLS/uL
same,ABSOLUTE MONOCYTE,[1],211.33 CELLS/uL
same,ABSOLUTE SEGMENTED NEUTROPHIL,[1],736.33 CELLS/uL
same,BASOPHIL,[1],0%
same,EOSINOPHIL,[1],0%
same,ERYTHROCYTE COUNT,[1],5.9 x10E6/uL
same,HEMATOCRIT,[1],37.23%
same,HEMOGLOBIN,[1],14.13 G/DL
same,LEUKOCYTE COUNT,[1],12.83 x10E3/uL
same,LYMPHOCYTE,[1],92.33%
same,MEAN CORPUSCULAR HEMOGLOBIN,[1],24 pg
same,MEAN CORPUSCULAR HEMOGLOBIN CONCENTRATION,[1],38 G/DL
same,MEAN CORPUSCULAR VOLUME,[1],63.17 fL
same,MONOCYTE,[1],1.67%
same,NEUTROPHIL,[1],6%
same,NUCLEATED RED BLOOD CELLS,[1],0 /100WBC
same,PLATELET COUNT,[1],1370 x10E3/uL
same,ALANINE AMINOTRANSFERASE,[1],44 u/L
same,ALBUMIN,[1],4.63 G/DL
same,ALKALINE PHOSPHATASE,[1],333.33 u/L
same,ASPARTATE AMINOTRANSFERASE,[1],101.67 u/L
same,BLOOD UREA NITROGEN,[1],18.33 mg/dL
same,CARBON DIOXIDE,[1],21.33 mmol/L
same,CHLORIDE,[1],96 MEQ/L
same,CHOLESTEROL,[1],92.67 mg/dL
same,CREATINE PHOSPHOKINASE,[1],602 u/L
same,CREATININE,[1],0.2 mg/dL
same,GLUCOSE,[1],137 mg/dL
same,LACTATE DEHYDROGENASE,[1],701 u/L
same,LIPASE,[1],10 u/L
same,PHOSPHORUS,[1],12.9 mg/dL
same,POTASSIUM,[1],6.82 MEQ/L
same,SODIUM,[1],140.17 MEQ/L
same,TOTAL BILIRUBIN,[1],0.17 mg/dL
same,TOTAL PROTEIN,[1],6.4 G/DL
same,URIC ACID,[1],1.77 mg/dL
same,ABSOLUTE BASOPHIL,[2],0 CELLS/uL
same,ABSOLUTE EOSINOPHIL,[2],80 CELLS/uL
same,ABSOLUTE LYMPHOCYTE,[2],13140 CELLS/uL
same,ABSOLUTE MONOCYTE,[2],187.67 CELLS/uL
same,ABSOLUTE SEGMENTED NEUTROPHIL,[2],1059 CELLS/uL
same,BASOPHIL,[2],0%
same,EOSINOPHIL,[2],0.67%
same,ERYTHROCYTE COUNT,[2],5.43 x10E6/uL
same,HEMATOCRIT,[2],34.63%
same,HEMOGLOBIN,[2],13.57 G/DL
same,LEUKOCYTE COUNT,[2],14.47 x10E3/uL
same,LYMPHOCYTE,[2],91%
same,MEAN CORPUSCULAR HEMOGLOBIN,[2],25 pg
same,MEAN CORPUSCULAR HEMOGLOBIN CONCENTRATION,[2],39.17 G/DL
same,MEAN CORPUSCULAR VOLUME,[2],63.83 fL
same,MONOCYTE,[2],1.33%
same,NEUTROPHIL,[2],7%
same,NUCLEATED RED BLOOD CELLS,[2],0 /100WBC
same,PLATELET COUNT,[2],1246.67 x10E3/uL
same,ALANINE AMINOTRANSFERASE,[2],45.67 u/L
same,ALBUMIN,[2],4.03 G/DL
same,ALKALINE PHOSPHATASE,[2],333 u/L
same,ASPARTATE AMINOTRANSFERASE,[2],70.33 u/L
same,BLOOD UREA NITROGEN,[2],14 mg/dL
same,CARBON DIOXIDE,[2],27.33 mmol/L
same,CHLORIDE,[2],101 MEQ/L
same,CHOLESTEROL,[2],71.33 mg/dL
same,CREATINE PHOSPHOKINASE,[2],209.67 u/L
same,CREATININE,[2],0.12 mg/dL
same,GLUCOSE,[2],150 mg/dL
same,LACTATE DEHYDROGENASE,[2],187.33 u/L
same,LIPASE,[2],8.67 u/L
same,PHOSPHORUS,[2],11 mg/dL
same,POTASSIUM,[2],6.62 MEQ/L
same,SODIUM,[2],144.57 MEQ/L
same,TOTAL BILIRUBIN,[2],0.23 mg/dL
same,TOTAL PROTEIN,[2],5.9 G/DL
same,URIC ACID,[2],1.23 mg/dL
same,ABSOLUTE BASOPHIL,[3],0 CELLS/uL
same,ABSOLUTE EOSINOPHIL,[3],0 CELLS/uL
same,ABSOLUTE LYMPHOCYTE,[3],11731.33 CELLS/uL
same,ABSOLUTE MONOCYTE,[3],603.33 CELLS/uL
same,ABSOLUTE SEGMENTED NEUTROPHIL,[3],4732 CELLS/uL
same,BASOPHIL,[3],0%
same,EOSINOPHIL,[3],0%
same,ERYTHROCYTE COUNT,[3],4.99 x10E6/uL
same,HEMATOCRIT,[3],31.07%
same,HEMOGLOBIN,[3],12.4 G/DL
same,LEUKOCYTE COUNT,[3],17.07 x10E3/uL
same,LYMPHOCYTE,[3],69.67%
same,MEAN CORPUSCULAR HEMOGLOBIN,[3],24.97 pg
same,MEAN CORPUSCULAR HEMOGLOBIN CONCENTRATION,[3],39.93 G/DL
same,MEAN CORPUSCULAR VOLUME,[3],62.43 fL
same,MONOCYTE,[3],3.67%
same,NEUTROPHIL,[3],26.67%
same,NUCLEATED RED BLOOD CELLS,[3],0 /100WBC
same,PLATELET COUNT,[3],1249.67 x10E3/uL
same,ALANINE AMINOTRANSFERASE,[3],40.33 u/L
same,ALBUMIN,[3],3.03 G/DL
same,ALKALINE PHOSPHATASE,[3],327 u/L
same,ASPARTATE AMINOTRANSFERASE,[3],65.67 u/L
same,BLOOD UREA NITROGEN,[3],12.33 mg/dL
same,CARBON DIOXIDE,[3],22.33 mmol/L
same,CHLORIDE,[3],98.67 MEQ/L
same,CHOLESTEROL,[3],62.67 mg/dL
same,CREATINE PHOSPHOKINASE,[3],173 u/L
same,CREATININE,[3],0.17 mg/dL
same,GLUCOSE,[3],131 mg/dL
same,LACTATE DEHYDROGENASE,[3],217 u/L
same,LIPASE,[3],9 u/L
same,PHOSPHORUS,[3],12.47 mg/dL
same,POTASSIUM,[3],6.61 MEQ/L
same,SODIUM,[3],143.17 MEQ/L
same,TOTAL BILIRUBIN,[3],0.1 mg/dL
same,TOTAL PROTEIN,[3],6.03 G/DL
same,URIC ACID,[3],1.7 mg/dL
same,ABSOLUTE BASOPHIL,[4],0 CELLS/uL
same,ABSOLUTE EOSINOPHIL,[4],0 CELLS/uL
same,ABSOLUTE LYMPHOCYTE,[4],17693 CELLS/uL
same,ABSOLUTE MONOCYTE,[4],655 CELLS/uL
same,ABSOLUTE SEGMENTED NEUTROPHIL,[4],5318.67 CELLS/uL
same,BASOPHIL,[4],0%
same,EOSINOPHIL,[4],0%
same,ERYTHROCYTE COUNT,[4],5.09 x10E6/uL
same,HEMATOCRIT,[4],30.4%
same,HEMOGLOBIN,[4],12.37 G/DL
same,LEUKOCYTE COUNT,[4],23.67 x10E3/uL
same,LYMPHOCYTE,[4],76.67%
same,MEAN CORPUSCULAR HEMOGLOBIN,[4],24.3 pg
same,MEAN CORPUSCULAR HEMOGLOBIN CONCENTRATION,[4],40.7 G/DL
same,MEAN CORPUSCULAR VOLUME,[4],59.73 fL
same,MONOCYTE,[4],3%
same,NEUTROPHIL,[4],20.33%
same,NUCLEATED RED BLOOD CELLS,[4],0.33 /100WBC
same,PLATELET COUNT,[4],1767.33 x10E3/uL
same,ALANINE AMINOTRANSFERASE,[4],33.33 u/L
same,ALBUMIN,[4],2.7 G/DL
same,ALKALINE PHOSPHATASE,[4],254.33 u/L
same,ASPARTATE AMINOTRANSFERASE,[4],66.33 u/L
same,BLOOD UREA NITROGEN,[4],16.67 mg/dL
same,CARBON DIOXIDE,[4],24.33 mmol/L
same,CHLORIDE,[4],103.33 MEQ/L
same,CHOLESTEROL,[4],55.67 mg/dL
same,CREATINE PHOSPHOKINASE,[4],192.33 u/L
same,CREATININE,[4],0.13 mg/dL
same,GLUCOSE,[4],142.33 mg/dL
same,LACTATE DEHYDROGENASE,[4],225.33 u/L
same,LIPASE,[4],7.67 u/L
same,PHOSPHORUS,[4],11.27 mg/dL
same,POTASSIUM,[4],6.81 MEQ/L
same,SODIUM,[4],144.57 MEQ/L
same,TOTAL BILIRUBIN,[4],0.1 mg/dL
same,TOTAL PROTEIN,[4],5.87 G/DL
same,URIC ACID,[4],1.87 mg/dL
